Measurements published in ChEMBL document CHEMBL3102725, “Trichodermone, a spiro-cytochalasan with a tetracyclic nucleus (7/5/6/5) skeleton from the plant endophytic fungus Trichoderma gamsii” (J Nat Prod, 2014).

Tested on: HeLa
Assay: Cytotoxicity against human HeLa cells by MTT assay
Assay type: functional, cell-based

Structure (SMILES)	IC50 [nM]
CC1=C[C@@H]2/C=C(\C)CC[C@H](O)[C@H](O)/C=C/C(=O)[C@]23C(=O)N[C@@H](CC(C)C)[C@@H]3[C@@H]1C [ASPOCHALASIN D]	5720
CC(=O)O[C@H]1C(=O)[C@@]2(C)[C@H]([C@H](OC(=O)c3ccccc3)[C@]3(O)C[C@H](OC(=O)[C@H](O)[C@@H](NC(=O)c4ccccc4)c4ccccc4)C(C)=C1C3(C)C)[C@]1(OC(C)=O)CO[C@@H]1C[C@@H]2O [PACLITAXEL]	2.5
